Measurements from patent publication US12540150B1, “Fluorogenic probe using a Mislow-Evans rearrangement for real-time imaging of hydrogen peroxide” (University of Pittsburgh—Of the Commonwealth System of …, priority 2020, dated 2026).
Where “and” joins values, the source holds several entries; their conditions need not be identical. Equal values may be shown once.

Tests used:
[1] = Selectivity of 1: reaction with NO·; conditions: 15 min minus 0 min
HeLa cells = test: Imaging of exogenously added H2O2 in HeLa cells; assay type: cell-based; conditions: 0.5 μM 1, 37° C.
Experimental: It was then attempted to image H2O2 within cells. HeLa cells were seeded on 35-mm glass bottom dishes (MatTek Corporation, Ashland, MA) and incubated with 0.5 μM 1 in 0.1% DMSO in DMEM (10% FBS with penicillin/streptomycin) prior to imaging. After washing with HBSS and replacing the media, H2O2 was added. The dish was inserted in a closed, thermo-controlled (37° C.) stage top incubator (Tokai Hit Co., Shizuoka-ken, Ja-pan) atop the motorized stage of an inverted Nikon TiE fluorescent microscope (Nikon Inc., Melville, NY) equipped with a 60× oil immersion optic (Nikon, CFI PlanFluor, NA 1.49) and NIS Elements Software. The sample was excited using the 470 nm line of a Lumencor diode-pumped light engine (SpectraX, Lumencor Inc., Beaverton OR). Fluorescence was detected using an ET-GFP filter set (Chroma Technology Corp) and ORCA-Flash 4.0 sCMOS camera (HAMAMATSU Corporation, Bridgewater, NJ).

[2] = Fluorescence intensity of selenide 1 and phenol 5; assay type: physicochemical
Experimental: All fluorescence measurements (excitation 490 nm, emission 510-570 nm) were carried out using a Promega Biosystems Modulus II Microplate Reader or a HoribaMax Fluorometer unless otherwise stated. Data analysis was performed using GraphPad Prism 8.
The fluorescence intensity of selenide 1 and phenol 5 were investigated. Solutions containing ultrapure water (681 μL), […] phosphate pH 7 buffer (31 μL), DMSO (28.1 μL), and 80 μM 1 or phenol 5 in DMSO (9.4 μL) were made. Aliquots of these solutions (200 μL) were transferred to the wells of a black 96-well plate and the fluorescence was measured. As evident from FIG. 10 and Table 1, the difference in fluorescence intensity of probe 1 and phenol 5, is 27-fold. Generally, O-alkylation of Pittsburgh Green suppresses the fluorescence by 200-400 fold. The somewhat modest fluorescence increase in the current system is attributed to the trace contamination of the fluorescent compound 5 during the purification of the nonfluorescent probe 1.

SMILES: Oc1ccc2c(c1)Oc1cc(O/C=C/C[Se]c3ccccc3)ccc1[C@@]21OCc2ccccc21 [Compound 1, (S,E)-6′-((3-(Phenylselanyl)prop-1-en-1-yl)oxy)-3H-spiro[isobenzofuran-1,9′-xanthen]-3′-ol]
- Fluorescence ([1]; 0.1 μM H2O2): 9,370 and 9,525 and 9,517
- Fluorescence ([1]; 1 μM H2O2): 26,155 and 26,618 and 27,176
- Fluorescence ([1]; 10 μM H2O2): 111,008 and 106,765 and 111,053
- time to significant increase in fluorescence after H2O2 addition (HeLa cells): ≤ 30 s
- signal increase in the conversion if trace phenol 5 can be removed from selenide 1 ([2]; extrapolated): 125-250 fold
- difference in fluorescence intensity of probe 1 and phenol 5 ([2]; phosphate pH 7 buffer): 27 fold
- Fluorescence Intensity ([2]; water/phosphate pH 7 buffer/DMSO, 200 μL, excitation 490 nm, emission 510-570 nm, replicates n = 3): 7,053 and 11,524 and 8,556
